Data on one molecule can be found in the kinase profiling compilation of Christmann-Franck et al. (2016).

Each structure is given as a SMILES string.

Details in all cases: compound 10.0 µM
The test system of assay [1] is EGFR (human), P00533 [752-759 del].
For assay [2], the system named is ABL1 (human), P00519 [M351T].
Another assay has as its target MYLK3 (human) (UniProt Q32MK0).
Assay [3] deals with PIK3CA (human), P42336 [H1047L].
A further assay addresses PIK3CA (human) (UniProt P42336).
The target in another assay is MAPK15 (human) (UniProt Q8TD08).
The test system of assay [4] is KIT (human), P10721 [A829P].
The next assay concerns the target CSF1R (human) (UniProt P07333).
Assay [5] has as its system PIK3CA (human), P42336 [Q546K].
The target in the next assay is AURKB (human) (UniProt Q96GD4).
Assay [6] concerns FLT3 (human), P36888 [D835Y].
Assay [7] has as its system EGFR (human), P00533 [L858R].
The subject of assay [8] is PIK3CA (human), P42336 [I800L].
In the next assay the target is PIK3CD (human) (UniProt O00329).
The subject of assay [9] is EGFR (human), P00533 [P753S; 747-752 del].
For another assay, the target named is TIE1 (human) (UniProt P35590).
TIE1 (human), sequence (P35590 whole entry, looked up): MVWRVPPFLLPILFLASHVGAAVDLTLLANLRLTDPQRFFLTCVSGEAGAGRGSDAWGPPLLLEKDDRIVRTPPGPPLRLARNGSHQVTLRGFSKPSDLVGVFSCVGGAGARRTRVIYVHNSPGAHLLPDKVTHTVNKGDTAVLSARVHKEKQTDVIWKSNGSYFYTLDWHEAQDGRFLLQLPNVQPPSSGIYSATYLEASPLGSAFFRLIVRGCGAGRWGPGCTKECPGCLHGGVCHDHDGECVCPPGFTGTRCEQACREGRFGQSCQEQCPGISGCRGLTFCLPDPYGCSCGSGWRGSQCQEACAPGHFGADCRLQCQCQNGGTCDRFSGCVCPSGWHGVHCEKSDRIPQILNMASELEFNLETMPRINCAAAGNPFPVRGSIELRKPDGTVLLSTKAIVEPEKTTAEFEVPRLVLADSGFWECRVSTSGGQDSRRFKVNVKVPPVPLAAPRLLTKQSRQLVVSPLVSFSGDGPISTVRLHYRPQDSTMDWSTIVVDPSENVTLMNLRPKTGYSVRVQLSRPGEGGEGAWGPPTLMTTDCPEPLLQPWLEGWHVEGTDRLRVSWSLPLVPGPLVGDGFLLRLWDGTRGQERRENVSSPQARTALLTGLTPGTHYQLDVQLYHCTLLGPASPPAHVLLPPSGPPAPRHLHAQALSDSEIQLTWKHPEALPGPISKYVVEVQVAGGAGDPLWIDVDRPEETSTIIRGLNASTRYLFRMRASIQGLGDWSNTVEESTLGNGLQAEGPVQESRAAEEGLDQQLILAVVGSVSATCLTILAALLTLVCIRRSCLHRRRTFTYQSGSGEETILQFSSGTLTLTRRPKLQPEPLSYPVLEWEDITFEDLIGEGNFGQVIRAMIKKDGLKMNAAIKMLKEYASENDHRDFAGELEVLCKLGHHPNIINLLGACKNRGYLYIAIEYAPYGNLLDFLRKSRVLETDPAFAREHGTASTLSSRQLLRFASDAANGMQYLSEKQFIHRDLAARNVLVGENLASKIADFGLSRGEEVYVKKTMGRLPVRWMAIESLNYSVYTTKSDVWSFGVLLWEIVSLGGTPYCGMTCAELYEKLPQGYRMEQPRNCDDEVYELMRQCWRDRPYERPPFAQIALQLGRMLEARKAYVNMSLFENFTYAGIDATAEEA

KIT (human), P10721 [A829P], sequence (P10721 whole entry A829P, looked up): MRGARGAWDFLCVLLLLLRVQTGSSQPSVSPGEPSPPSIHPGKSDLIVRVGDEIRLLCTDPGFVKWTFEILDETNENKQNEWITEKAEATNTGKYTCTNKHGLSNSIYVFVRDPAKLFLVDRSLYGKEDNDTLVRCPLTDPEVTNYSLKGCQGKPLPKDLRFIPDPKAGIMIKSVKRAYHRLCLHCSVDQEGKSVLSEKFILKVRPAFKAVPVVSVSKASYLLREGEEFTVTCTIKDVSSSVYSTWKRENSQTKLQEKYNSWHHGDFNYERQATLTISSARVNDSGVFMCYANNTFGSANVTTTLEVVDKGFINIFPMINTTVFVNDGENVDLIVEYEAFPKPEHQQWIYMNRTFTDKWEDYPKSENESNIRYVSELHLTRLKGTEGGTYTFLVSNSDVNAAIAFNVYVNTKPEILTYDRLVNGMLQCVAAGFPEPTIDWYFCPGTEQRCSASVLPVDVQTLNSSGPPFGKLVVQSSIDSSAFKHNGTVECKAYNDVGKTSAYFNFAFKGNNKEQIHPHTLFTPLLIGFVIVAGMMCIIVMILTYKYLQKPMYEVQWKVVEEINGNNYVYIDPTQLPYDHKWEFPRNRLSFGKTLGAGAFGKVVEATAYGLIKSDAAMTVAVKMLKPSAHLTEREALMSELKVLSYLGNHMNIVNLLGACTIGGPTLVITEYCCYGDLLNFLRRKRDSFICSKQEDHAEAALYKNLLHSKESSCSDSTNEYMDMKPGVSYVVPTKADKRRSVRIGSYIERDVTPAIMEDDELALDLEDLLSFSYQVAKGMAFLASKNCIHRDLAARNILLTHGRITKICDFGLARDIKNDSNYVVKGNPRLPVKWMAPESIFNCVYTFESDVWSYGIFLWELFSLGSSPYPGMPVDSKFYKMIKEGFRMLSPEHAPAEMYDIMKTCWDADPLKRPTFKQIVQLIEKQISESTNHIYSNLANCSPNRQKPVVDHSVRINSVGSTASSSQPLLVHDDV
PIK3CA (human), sequence (P42336 whole entry, looked up): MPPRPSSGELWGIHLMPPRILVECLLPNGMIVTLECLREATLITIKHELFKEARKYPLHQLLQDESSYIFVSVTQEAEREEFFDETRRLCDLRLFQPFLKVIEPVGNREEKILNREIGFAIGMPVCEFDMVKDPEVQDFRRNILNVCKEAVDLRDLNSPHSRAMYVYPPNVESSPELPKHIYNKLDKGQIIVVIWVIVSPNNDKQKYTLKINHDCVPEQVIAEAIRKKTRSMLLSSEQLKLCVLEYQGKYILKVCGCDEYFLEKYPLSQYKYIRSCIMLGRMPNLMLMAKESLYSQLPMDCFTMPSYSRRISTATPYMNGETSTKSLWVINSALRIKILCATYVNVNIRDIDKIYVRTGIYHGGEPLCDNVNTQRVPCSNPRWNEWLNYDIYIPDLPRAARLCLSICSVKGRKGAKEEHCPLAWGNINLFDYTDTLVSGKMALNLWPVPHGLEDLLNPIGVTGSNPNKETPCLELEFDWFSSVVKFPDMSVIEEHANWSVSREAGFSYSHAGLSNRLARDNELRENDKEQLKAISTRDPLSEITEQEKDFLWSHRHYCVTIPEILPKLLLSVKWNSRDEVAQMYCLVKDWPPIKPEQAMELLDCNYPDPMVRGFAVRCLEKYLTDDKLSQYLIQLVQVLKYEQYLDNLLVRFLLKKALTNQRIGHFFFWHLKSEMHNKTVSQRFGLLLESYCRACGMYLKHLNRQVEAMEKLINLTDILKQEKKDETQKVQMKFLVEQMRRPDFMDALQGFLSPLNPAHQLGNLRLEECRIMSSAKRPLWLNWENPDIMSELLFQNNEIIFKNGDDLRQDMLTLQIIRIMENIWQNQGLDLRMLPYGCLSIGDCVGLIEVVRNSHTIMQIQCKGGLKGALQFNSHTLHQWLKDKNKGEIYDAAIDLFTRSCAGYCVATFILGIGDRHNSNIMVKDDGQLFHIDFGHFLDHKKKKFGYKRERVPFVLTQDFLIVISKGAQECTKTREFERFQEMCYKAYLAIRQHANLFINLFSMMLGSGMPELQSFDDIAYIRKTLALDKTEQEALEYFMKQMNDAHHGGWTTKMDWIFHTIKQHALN
PIK3CD (human), sequence (O00329 whole entry, looked up): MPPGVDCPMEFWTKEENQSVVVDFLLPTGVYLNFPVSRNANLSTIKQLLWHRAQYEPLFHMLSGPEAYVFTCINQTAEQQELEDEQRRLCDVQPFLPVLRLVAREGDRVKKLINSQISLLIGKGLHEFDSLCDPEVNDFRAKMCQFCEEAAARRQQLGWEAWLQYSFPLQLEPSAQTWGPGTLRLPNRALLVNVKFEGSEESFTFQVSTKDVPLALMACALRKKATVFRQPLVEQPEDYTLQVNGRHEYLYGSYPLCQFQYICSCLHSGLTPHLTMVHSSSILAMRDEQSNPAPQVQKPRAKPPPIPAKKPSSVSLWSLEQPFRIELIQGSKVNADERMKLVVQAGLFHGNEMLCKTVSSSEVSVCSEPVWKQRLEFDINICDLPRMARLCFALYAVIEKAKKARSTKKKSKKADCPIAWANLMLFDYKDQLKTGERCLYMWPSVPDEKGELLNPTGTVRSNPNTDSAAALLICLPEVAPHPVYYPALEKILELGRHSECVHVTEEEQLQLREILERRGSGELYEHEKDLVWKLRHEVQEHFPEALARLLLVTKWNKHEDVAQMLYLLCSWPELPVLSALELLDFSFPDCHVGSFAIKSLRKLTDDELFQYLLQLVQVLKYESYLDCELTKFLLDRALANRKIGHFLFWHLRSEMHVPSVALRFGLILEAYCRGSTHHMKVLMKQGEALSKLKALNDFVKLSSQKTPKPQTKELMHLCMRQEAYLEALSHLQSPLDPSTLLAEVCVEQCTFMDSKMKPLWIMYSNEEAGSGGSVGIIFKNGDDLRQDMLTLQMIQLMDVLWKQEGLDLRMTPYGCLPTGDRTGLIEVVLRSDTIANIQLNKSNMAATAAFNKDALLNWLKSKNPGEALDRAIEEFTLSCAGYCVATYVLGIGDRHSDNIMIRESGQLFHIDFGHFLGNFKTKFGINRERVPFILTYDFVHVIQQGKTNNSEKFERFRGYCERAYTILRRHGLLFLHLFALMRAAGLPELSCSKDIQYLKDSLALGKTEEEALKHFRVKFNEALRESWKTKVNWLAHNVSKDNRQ
PIK3CA (human), P42336 [Q546K], sequence (P42336 whole entry Q546K, looked up): as the sequence (P42336 whole entry, looked up) above, with Q546K counted along it
AURKB (human), sequence (Q96GD4 whole entry, looked up): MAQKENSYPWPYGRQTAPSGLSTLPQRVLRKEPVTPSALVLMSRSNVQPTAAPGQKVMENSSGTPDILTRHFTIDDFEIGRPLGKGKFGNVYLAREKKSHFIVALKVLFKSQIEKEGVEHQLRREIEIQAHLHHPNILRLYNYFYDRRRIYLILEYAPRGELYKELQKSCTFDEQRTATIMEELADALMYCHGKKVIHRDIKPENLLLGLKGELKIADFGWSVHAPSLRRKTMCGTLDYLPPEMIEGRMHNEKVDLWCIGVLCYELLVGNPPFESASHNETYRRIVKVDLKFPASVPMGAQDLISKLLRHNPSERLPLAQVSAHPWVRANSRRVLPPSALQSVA
PIK3CA (human), P42336 [I800L], sequence (P42336 whole entry I800L, looked up): as the sequence (P42336 whole entry, looked up) above, with I800L counted along it
PIK3CA (human), P42336 [H1047L], sequence (P42336 whole entry H1047L, looked up): as the sequence (P42336 whole entry, looked up) above, with H1047L counted along it

As to `CNC(=O)c1cc(Oc2ccc(NC(=O)Nc3ccc(Cl)c(C(F)(F)F)c3)cc2)cc[n+]1[O-]`, the per cent of control in [1] is 96%; in assay [2] it was 21%; on MYLK3 (human), 2.8%; in assay [3] it was 98%; at PIK3CA (human), 95%; on MAPK15 (human) it was 0.6%. In addition, the per cent of control in [4] is 26%; on CSF1R (human) it was 0%; in assay [5] it was 100%; on AURKB (human), 0%; in assay [6], 2.8%; in [7] it was 88%. For the same molecule, the per cent of control in [8] was 100%; on PIK3CD (human), 100%; in [9], 77%; at TIE1 (human), 0.3%.
